Our source for the % of control, % of activity and % of inhibition values is ChEMBL document CHEMBL5465560, “Selectivity Literature for EUbOPEN Chemogenomic Library” (2024).

Test [1] addresses T1, Megakaryocyte-associated tyrosine-protein kinase (Homo sapiens) (UniProt P42679).
T1 sequence (whole entry): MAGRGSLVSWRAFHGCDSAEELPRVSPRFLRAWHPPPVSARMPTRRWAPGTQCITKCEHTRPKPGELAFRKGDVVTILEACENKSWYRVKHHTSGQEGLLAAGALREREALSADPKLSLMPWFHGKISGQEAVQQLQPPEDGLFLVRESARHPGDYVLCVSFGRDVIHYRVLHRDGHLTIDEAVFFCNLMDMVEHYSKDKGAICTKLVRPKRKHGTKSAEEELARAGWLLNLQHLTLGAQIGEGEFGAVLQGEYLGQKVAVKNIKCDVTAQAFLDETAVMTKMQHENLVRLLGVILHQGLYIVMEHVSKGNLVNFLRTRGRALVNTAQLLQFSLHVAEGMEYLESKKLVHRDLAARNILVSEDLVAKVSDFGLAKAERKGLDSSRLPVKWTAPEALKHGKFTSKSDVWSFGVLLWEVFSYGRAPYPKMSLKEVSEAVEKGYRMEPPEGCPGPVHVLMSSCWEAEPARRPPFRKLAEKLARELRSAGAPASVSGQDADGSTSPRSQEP
The test is described as follows: Selectivity interaction (Ambit KINOMEscan and KiNATiv profiling in Jurkat cells) EUB0000090b MATK. The class given is cell-based. Particulars: at 1 µM.

Test [2] concerns the target T2, Protein arginine N-methyltransferase 7 (Homo sapiens) (UniProt Q9NVM4).
T2 sequence (whole entry): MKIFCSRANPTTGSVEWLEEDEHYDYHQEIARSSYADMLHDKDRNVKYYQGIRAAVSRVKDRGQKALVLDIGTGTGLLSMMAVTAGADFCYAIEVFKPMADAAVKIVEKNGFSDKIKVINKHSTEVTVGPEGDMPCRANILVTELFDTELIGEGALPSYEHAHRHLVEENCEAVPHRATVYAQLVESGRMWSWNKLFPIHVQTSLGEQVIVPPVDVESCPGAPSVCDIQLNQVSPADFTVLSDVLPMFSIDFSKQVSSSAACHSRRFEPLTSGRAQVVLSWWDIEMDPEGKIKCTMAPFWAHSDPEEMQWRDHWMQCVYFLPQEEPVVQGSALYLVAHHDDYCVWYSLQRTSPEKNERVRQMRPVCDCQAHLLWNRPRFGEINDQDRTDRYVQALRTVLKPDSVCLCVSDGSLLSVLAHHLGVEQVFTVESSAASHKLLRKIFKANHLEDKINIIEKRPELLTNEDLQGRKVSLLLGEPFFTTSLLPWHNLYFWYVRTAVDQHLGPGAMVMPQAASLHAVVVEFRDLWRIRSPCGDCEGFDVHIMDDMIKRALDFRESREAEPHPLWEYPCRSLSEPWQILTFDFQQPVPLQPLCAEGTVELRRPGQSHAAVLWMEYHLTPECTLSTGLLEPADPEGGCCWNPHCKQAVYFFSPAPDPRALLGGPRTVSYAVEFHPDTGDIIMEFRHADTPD
The test is described as follows: Selectivity interaction (Methyltransferase screen (radiometric assays, panel of 8 PRMTs, 21 protein lysine methyltransferases, 3 DNA methyltransferases, and one RNA methyltransferase)) EUB0000271b PRMT7.

Test [3] has as its target T3, Serine/threonine-protein kinase BRSK2 (Homo sapiens) (UniProt Q8IWQ3).
T3 sequence (whole entry): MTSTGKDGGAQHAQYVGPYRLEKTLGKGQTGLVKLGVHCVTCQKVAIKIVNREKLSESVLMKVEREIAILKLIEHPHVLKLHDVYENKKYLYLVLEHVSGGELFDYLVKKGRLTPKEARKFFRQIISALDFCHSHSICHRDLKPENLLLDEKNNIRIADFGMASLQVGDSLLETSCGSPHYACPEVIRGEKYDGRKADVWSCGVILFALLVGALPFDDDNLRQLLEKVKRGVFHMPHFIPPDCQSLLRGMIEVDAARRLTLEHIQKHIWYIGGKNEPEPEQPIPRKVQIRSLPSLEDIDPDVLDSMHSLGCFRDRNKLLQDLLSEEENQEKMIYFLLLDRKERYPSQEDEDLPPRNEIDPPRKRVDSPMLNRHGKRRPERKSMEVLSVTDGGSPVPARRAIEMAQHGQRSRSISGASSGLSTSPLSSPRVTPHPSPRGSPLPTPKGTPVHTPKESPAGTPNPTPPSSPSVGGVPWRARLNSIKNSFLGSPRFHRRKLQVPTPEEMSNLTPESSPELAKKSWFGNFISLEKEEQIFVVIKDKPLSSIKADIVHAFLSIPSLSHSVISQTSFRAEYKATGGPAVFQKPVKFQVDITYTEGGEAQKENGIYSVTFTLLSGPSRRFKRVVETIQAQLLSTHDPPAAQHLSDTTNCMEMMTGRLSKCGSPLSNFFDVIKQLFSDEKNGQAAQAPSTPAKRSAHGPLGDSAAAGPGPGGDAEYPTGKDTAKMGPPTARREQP
The test is described as follows: Selectivity interaction (SelectScreen profiling (Invitrogen)) EUB0000607a BRSK2. The following applies: at 2 µM.

Test [4] deals with T4, Dual serine/threonine and tyrosine protein kinase (Homo sapiens) (UniProt Q6XUX3).
T4 sequence (whole entry): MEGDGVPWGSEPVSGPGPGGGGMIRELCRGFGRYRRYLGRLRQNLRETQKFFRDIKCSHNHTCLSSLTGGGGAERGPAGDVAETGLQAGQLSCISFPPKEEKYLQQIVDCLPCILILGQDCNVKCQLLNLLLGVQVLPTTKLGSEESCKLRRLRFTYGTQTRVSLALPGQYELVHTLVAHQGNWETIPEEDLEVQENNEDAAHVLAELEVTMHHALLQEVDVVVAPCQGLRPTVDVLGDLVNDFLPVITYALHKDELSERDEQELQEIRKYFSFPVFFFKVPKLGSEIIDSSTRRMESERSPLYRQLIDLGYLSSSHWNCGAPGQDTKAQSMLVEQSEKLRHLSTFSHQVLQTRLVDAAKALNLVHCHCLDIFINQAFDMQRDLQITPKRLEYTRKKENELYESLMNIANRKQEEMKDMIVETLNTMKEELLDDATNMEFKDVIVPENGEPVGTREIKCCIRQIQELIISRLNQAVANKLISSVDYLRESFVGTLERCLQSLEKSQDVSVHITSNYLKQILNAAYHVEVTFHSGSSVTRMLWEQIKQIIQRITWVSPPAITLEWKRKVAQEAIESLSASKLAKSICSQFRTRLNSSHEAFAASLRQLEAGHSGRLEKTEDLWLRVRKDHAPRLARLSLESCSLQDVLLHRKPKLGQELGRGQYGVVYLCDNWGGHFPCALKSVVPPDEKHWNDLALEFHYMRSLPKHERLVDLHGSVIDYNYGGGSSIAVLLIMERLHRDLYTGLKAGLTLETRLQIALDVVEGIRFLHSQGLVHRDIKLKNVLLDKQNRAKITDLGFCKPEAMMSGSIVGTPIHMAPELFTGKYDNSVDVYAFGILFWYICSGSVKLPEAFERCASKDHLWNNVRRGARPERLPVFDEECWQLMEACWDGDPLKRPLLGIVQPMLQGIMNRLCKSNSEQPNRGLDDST
Briefly: Selectivity interaction (KinomeScan (DiscoverX)) EUB0000618a DSTYK. The following applies: at 10 µM.

As for `CN(C)C/C=C/C(=O)Nc1ccc(C(=O)N2CCCC(Nc3ncc(Cl)c(-c4c[nH]c5ccccc45)n3)C2)cc1` (stereo not given), the % of control in test [1] came to 94%.

`Cc1cc(C)cc([C@@H]2c3cc(C)ccc3NC(=O)CN2C(=O)c2ccc(Br)s2)c1`: the % of activity was 97.7% in test [2] (at 1 µM) and 103% in test [2] (at 10 µM).

In the case of `CNC(=O)Nc1ccc(-c2nc(N3CC4CCC(C3)O4)c3cnn(C4CCC5(CC4)OCCO5)c3n2)cc1`, the % of inhibition in test [3] turned out to be 1%.

`O[C@H]1CC[C@H](Nc2ncc3nc(Nc4c(F)cc(F)cc4F)n([C@H]4CCOC4)c3n2)CC1` returned a % of control in test [4] of 91%.
